Target: T1, Recombinant human liver GK1 (GST-GK) (Homo sapiens, UniProt P35557)
T1 construct: made in house; host or cells: E. coli
T1 sequence (P35557 1-466 isoform P35557-2): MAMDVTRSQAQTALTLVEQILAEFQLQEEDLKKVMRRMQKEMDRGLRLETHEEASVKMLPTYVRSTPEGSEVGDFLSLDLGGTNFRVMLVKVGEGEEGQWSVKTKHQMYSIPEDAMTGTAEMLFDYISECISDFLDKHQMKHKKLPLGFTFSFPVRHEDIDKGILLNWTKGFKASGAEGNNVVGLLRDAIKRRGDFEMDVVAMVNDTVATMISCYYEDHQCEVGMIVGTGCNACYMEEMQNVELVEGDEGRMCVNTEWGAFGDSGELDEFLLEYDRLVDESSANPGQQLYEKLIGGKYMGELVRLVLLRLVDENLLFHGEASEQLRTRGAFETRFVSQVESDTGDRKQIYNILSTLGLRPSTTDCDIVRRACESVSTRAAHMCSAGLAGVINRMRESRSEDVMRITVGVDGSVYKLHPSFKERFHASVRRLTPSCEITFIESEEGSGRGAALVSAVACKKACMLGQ
Assay: In vitro glucokinase activity assay (G6PDH-coupled, NADH, OD340)
Assay type: biochemical
Conditions: at 30 μM
Experimental: Glucokinase In Vitro Assay Protocol: Glucokinase (GK) was assayed by coupling the production of glucose-6-phosphate to the generation of NADH with glucose-6-phosphate dehydrogenase (G6PDH, 0.75-1 kunits/mg; Boehringer Mannheim, Indianapolis, Ind.) from Leuconostoc mesenteroides as the coupling enzyme (Scheme 2).
Recombinant human liver GK1 was expressed in E. coli as a glutathione S-transferase fusion protein (GST-GK) [Liang et al, 1995] and was purified by chromatography over a glutathione-Sepharose 4B affinity column using the procedure provided by the manufacturer (Amersham Pharmacia Biotech, Piscataway, N.J.).
The assay was conducted at 30° C. in a flat bottom 96-well tissue culture plate from Costar (Cambridge, Mass.) with a final incubation volume of 120 μL. The incubation reaction contained the following: 25 mM Hepes buffer (pH 7.1), 25 mM KCl, 5 mM D-glucose, 1 mM ATP, 1.8 mM NAD, 2 mM MgCl2, 1 μM sorbitol-6-phosphate, 1 mM dithiothreitol, test drug or 10% dimethylsulfoxide, ˜7 units/ml G6PDH, and GK (see below). All organic reagents were >98% pure and were from Boehringer Mannheim with the exceptions of D-glucose and Hepes which were from Sigma Chemical Co, St Louis, Mo. Test compounds were dissolved in dimethylsulfoxide and were added to the incubation reaction minus GST-GK in a volume of 12 μL to yield a final dimethylsulfoxide concentration of 10%. This mix was pre-incubated in the temperature controlled chamber of a SPECTRAmax 250 microplate spectrophotometer (Molecular Devices Corporation, Sunnyvale, Calif.) for 10 minutes to allow temperature equilibrium and then the reaction was started by the addition of 20 μL GST-GK.
After addition of enzyme, the increase in optical density (OD) at 340 nm was monitored spectrophotometrically to determine the rate of change (OD340 per min). The GK activity (OD340/min) in control wells (10% dimethylsulfoxide minus GK activators) was compared with the activity in wells containing test GK activators, and the concentration of activator that produced a 50% increase in the activity of GK, i.e., the SC1.5, was calculated.

With CCC(O)(CC)c1ccc(C(CC2CCCC2)c2cc3cccnc3[nH]2)cc1 (stereo not drawn) [Example 83, 3-{4-[2-Cyclopentyl-1-(1H-pyrrolo[2,3-b]pyridin-2-yl)-ethyl]-phenyl}-pentan-3-ol] the “fold activation of GK” value was 1.4 fold at 30.

Same assay, conditions: concentration of activator that produced a 50% increase in the activity of GK; 5 mM D-glucose, 30° C.

Compared with N#Cc1ccc(C(CC2CCCC2)c2cc3cc(F)cnc3[nH]2)cc1 (stereo not drawn) [Example 50, 4-[2-Cyclopentyl-1-(5-fluoro-1H-pyrrolo[2,3-b]pyridin-2-yl)-ethyl]-benzonitrile], CS(=O)(=O)c1ccc(C(CC2CCCC2)c2cc3cc(C#N)cnc3[nH]2)cc1 (stereo not drawn) [Example 52, 2-[2-Cyclopentyl-1-(4-methanesulfonyl-phenyl)-ethyl]-1H-pyrrolo[2,3-b]pyridin-5-carbonitrile] is 1.6-fold lower in SC1.5: 0.603 µM for the first, 0.37 µM for the second.

Going from COC(=O)c1cnc2[nH]c(C(CC3CCCC3)c3ccc(S(C)(=O)=O)cc3)cc2c1 (stereo not drawn) [Example 54, 2-[2-Cyclopentyl-1-(4-methanesulfonyl-phenyl)-ethyl]-1H-pyrrolo[2,3-b]pyridin-5-carboxylic acid methyl ester] to O=S(=O)(CCO)c1ccc(C(CC2CCCC2)c2cc3cc(F)cnc3[nH]2)cc1 (stereo not drawn) [Example 88, 2-{4-[2-Cyclopentyl-1-(5-fluoro-1H-pyrrolo[2,3-b]pyridin-2-yl)-ethyl]-benzenesulfonyl}-ethanol], the SC1.5 falls from 1.2 µM to 0.178 µM (6.7-fold).

Compared with CC(C)(O)c1ccc(C(CC2CCCC2)c2cc3cc(C(=O)O)cnc3[nH]2)cc1F (stereo not drawn) [Example 57, 2-{2-Cyclopentyl-1-[3-fluoro-4-(1-hydroxy-1-methyl-ethyl)-phenyl]-ethyl}-1H-pyrrolo[2,3-b]pyridin-5-carboxylic acid], CC(C)(O)c1ccc(C(CC2CCCC2)c2cc3cccnc3[nH]2)cc1 (stereo not drawn) [Example 81, 2-{4-[2-Cyclopentyl-1-(1H-pyrrolo[2,3-b]pyridin-2-yl)-ethyl]-phenyl}-propan-2-ol] is 9.7-fold lower in SC1.5: 22.3 µM for the first, 2.3 µM for the second.

Compared with CS(=O)(=O)c1ccc(C(CC2CCCC2)c2cc3cc(C(=O)NCCO)cnc3[nH]2)cn1 (stereo not drawn) [Example 59, 2-[2-Cyclopentyl-1-(6-methanesulfonyl-pyridin-3-yl)-ethyl]-1H-pyrrolo[2,3-b]pyridin-5-carboxylic acid(2-hydroxy-ethyl)-amide], Cc1ccc(C(CC2CCCC2)c2cc3cccnc3[nH]2)cn1 (stereo not drawn) [Example 63] is 1.6-fold lower in SC1.5: 5.5 µM for the first, 3.5 µM for the second.

COc1ccc(C(CC2CCCC2)c2cc3cccnc3[nH]2)cn1 (stereo not drawn) [Example 61] and CC(O)c1ccc(C(CC2CCCC2)c2cc3cccnc3[nH]2)cc1 (stereo not drawn) [Example 64, 1-{4-[2-Cyclopentyl-1-(1H-pyrrolo[2,3-b]pyridin-2-yl)-ethyl]-phenyl}-ethanol] are within 1.5-fold of each other in SC1.5: 3.0 µM for the first, 2.2 µM for the second.

Going from c1cnc2[nH]c(C(CC3CCCC3)c3ccc4c(c3)OCCO4)cc2c1 (stereo not drawn) [Example 62, 2-[2-Cyclopentyl-1-(2,3-dihydro-benzo[1,4]-dioxin-6-yl)-ethyl]-1H-pyrrolo[2,3-b]pyridine] to CN(C)c1ccc(C(CC2CCCC2)c2cc3cccnc3[nH]2)cc1 (stereo not drawn) [Example 65, {4-[2-Cyclopentyl-1-(1H-pyrrolo[2,3-b]pyridin-2-yl)-ethyl]-phenyl}-dimethyl-amine], the SC1.5 falls from 6.0 µM to 2.8 µM (2.1-fold).

Going from Cc1cc(C)cc(C(CC2CCCC2)c2cc3cccnc3[nH]2)c1 (stereo not drawn) [Example 66, 2-[2-Cyclopentyl-1-(3.5-dimethyl-phenyl)-ethyl]-1H-pyrrolo[2,3-b]pyridine] to CC(=O)c1ccc(C(CC2CCCC2)c2cc3cccnc3[nH]2)cc1 (stereo not drawn) [Example 80, 1-{4-[2-Cyclopentyl-1-(1H-pyrrolo[2,3-b]pyridin-2-yl)-ethyl]-phenyl}-ethanone], the SC1.5 falls from 4.2 µM to 2.6 µM (1.6-fold).

First: FC(F)(F)c1ccc(C(CC2CCOCC2)c2cc3cccnc3[nH]2)cc1 (stereo not drawn) [Example 68, 2-[2-(Tetrahydro-pyran-4-yl)-1-(4-trifluoromethyl-phenyl)-ethyl]-1H-pyrrolo[2,3-b]pyridine]
Second: CC(C)C(C)(O)c1ccc(C(CC2CCCC2)c2cc3cccnc3[nH]2)cc1 (stereo not drawn) [Example 85, 2-{4-[2-Cyclopentyl-1-(1H-pyrrolo[2,3-b]pyridin-2-yl)-ethyl]-phenyl}-3-methyl-butan-2-ol]
The SC1.5 of the first is 27-fold lower: 0.888 µM for the first, 23.6 µM for the second.

First: CS(=O)(=O)c1ccc(/C(=C\C2CCCO2)c2cc3cccnc3[nH]2)cc1 (stereo not drawn) [Example 70, (E)-2-[1-(4-Methanesulfonyl-phenyl)-2-(tetrahydro-furan-2-yl)-vinyl]-1H-pyrrolo[2,3-b]pyridine]
Second: CC(C)(C)/C=C(\c1ccc(S(C)(=O)=O)cc1)c1cc2cccnc2[nH]1 [Example 73, 2-[(E)-1-(4-Methanesulfonyl-phenyl)-3,3-dimethyl-but-1-enyl]-1H-pyrrolo[2,3-b]pyridine]
The SC1.5 of the first is 8-fold lower: 0.082 µM for the first, 0.653 µM for the second.

Going from CS(=O)(=O)c1ccc(C(CC2CCCO2)c2cc3cccnc3[nH]2)cc1 (stereo not drawn) [Example 71, 2-[1-(4-Methanesulfonyl-phenyl)-2-(tetrahydro-furan-2-yl)-ethyl]-1H-pyrrolo[2,3-b]pyridine] to CC(C)(C)CC(c1ccc(S(C)(=O)=O)cc1)c1cc2cccnc2[nH]1 (stereo not drawn) [Example 74, 2-[1-(4-Methanesulfonyl-phenyl)-3,3-dimethyl-butyl]-1H-pyrrolo[2,3-b]pyridine], the SC1.5 rises from 2.3 µM to 20.6 µM (9-fold).

COc1cnc2[nH]c(C(O)(CC3CCC3)c3ccc(S(C)(=O)=O)c(C(F)(F)F)c3)cc2c1 (stereo not drawn) [Example 72, 2-Cyclobutyl-1-(4-methanesulfonyl-3-trifluoromethyl-phenyl)-1-(5-methoxy-1H-pyrrolo[2,3-b]pyridin-2-yl)-ethanol] and CS(=O)(=O)c1ccc(C(O)(CC2CCC2)c2cc3cccnc3[nH]2)cc1C(F)(F)F (stereo not drawn) [Example 76, 2-Cyclobutyl-1-(4-methanesulfonyl-3-trifluoromethyl-phenyl)-1-(1H-pyrrolo[2,3-b]pyridin-2-yl)-ethanol] are within 1.5-fold of each other in SC1.5: 13.3 µM for the first, 14.9 µM for the second.

Going from CS(=O)(=O)Nc1ccc(C(CC2CCCC2)c2cc3cccnc3[nH]2)cc1 (stereo not drawn) [Example 75, N-{4-[2-Cyclopentyl-1-(1H-pyrrolo[2,3-b]pyridin-2-yl)-ethyl]-phenyl}-methanesulfonamide] to O=S(=O)(CCO)c1ccc(C(CC2CCCC2)c2cc3cccnc3[nH]2)cc1 (stereo not drawn) [Example 91], the SC1.5 falls from 2.5 µM to 0.832 µM (3-fold).

Compared with CS(=O)(=O)c1ccc(C(CC2CCC2)c2cc3cccnc3[nH]2)cc1C(F)(F)F (stereo not drawn) [Example 77, 2-[2-Cyclobutyl-1-(4-methanesulfonyl-3-trifluoromethyl-phenyl)-ethyl]-1H-pyrrolo[2,3-b]pyridine], CN(C)CCS(=O)(=O)c1ccc(C(CC2CCCC2)c2cc3cccnc3[nH]2)cc1 (stereo not drawn) [Example 92, (2-{4-[2-Cyclopentyl-1-(1H-pyrrolo[2,3-b]pyridin-2-yl)-ethyl]-benzenesulfonyl}-ethyl)-dimethyl-amine] is 1.6-fold higher in SC1.5: 0.692 µM for the first, 1.1 µM for the second.

O=S(=O)(CCO)c1ccc(C(CC2CCOCC2)c2cc3cc(F)cnc3[nH]2)cc1 (stereo not drawn) [Example 89] and O=S(=O)(CCN1CCOCC1)c1ccc(C(CC2CCCC2)c2cc3cccnc3[nH]2)cc1 (stereo not drawn) [Example 93, 2-{2-Cyclopentyl-1-[4-(2-morpholin-4-yl-ethanesulfonyl)-phenyl]-ethyl}-1H-pyrrolo[2,3-b]pyridine] are within 1.5-fold of each other in SC1.5: 2.5 µM for the first, 1.7 µM for the second.

Work on CCOCCS(=O)(=O)c1ccc(C(CC2CCCC2)c2cc3cccnc3[nH]2)cc1 (stereo not drawn) [Example 90, 2-{2-Cyclopentyl-1-[4-(2-ethoxy-ethanesulfonyl)-phenyl]-ethyl}-1H-pyrrolo[2,3-b]pyridine] yielded an SC1.5 of 0.73 µM.

— patent US8222416B2, “Azaindole glucokinase activators” (Hoffmann-La Roche Inc., priority 2009, dated 2012)
